Patent US10457709B2, “Antimicrobial peptides, their variants and uses” (priority 2015, dated 2019)
Values after ≈ are worked out from the molar mass of the structure shown. Square brackets hold non-standard residues; d marks the D form. Peptide text beside a SMILES is read from it.

Columns and labels:
[1] = system: Acinetobacter baumannii clinical strains; assay type: cell-based; conditions: clinical strains
Method: (§1) Minimum inhibition concentrations (MICs) were determined against Escherichia coli (ATCC 25922), Staphylococcus aureus (ATCC 25923), Klebsiella pneumoniae (ATCC 10031) and Pseudomonas aeruginosa (ATCC 27853). Also clinical strains of E. coli, K. pneumoniae, E. cloacae, P. aeruginosa, Serratia marcescens, Proteus mirabilis, S. pneumoniae, Acinetobacter baumannii, A. johnsonii and S. aureus were used for MICs assays. Additionally, clinical strains of yeast including Candida albicans, C. glabrata, C. parapsilosis and C. quillermondiae were used. The susceptibility of these microorganisms to Chain peptides were determined using micro broth dilution assay. Colonies of the respective microorganism from Muller Hinton (MH) agar plates incubated overnight were suspended in MH broth media and final concentration of microorganism was adjusted to 5.0×10^5 cfu/ml. An aliquot of 10 μl of each Chain peptide, or gentamicin, tetracycline as reference antibiotics were added in differing concentrations along with 90 μl of bacterial suspension to 96 well polypropylene plates and incubated at 37° C. for 20 to 24 hours. Concentrations of Chain peptides and reference antibiotics ranged from 0.125 to 128 μg/ml and the MICs were recorded as the lowest concentration with no visual growth of bacteria. Similarly, antifungal MICs were tested in Potato dextrose broth.
(§2) Clinical strains of yeasts including Candida albicans, C. glabrata, C. parapsilosis and C. quillermondiae were also tested with the 12 Chain peptides. The minimum inhibitory concentration (MICs) varied between these peptides and are presented in Tables 4a, 4b, 4c and 5a, 5b, 5c. Peptides Chain 105, 201 and 308 are broad spectrum antimicrobials with MICs between 0.5-32 μg/ml against all the bacteria and yeasts tested, except Serratia marcescens and Proteus mirabilis, against which the MICs were between 64-128 μg/ml. Peptide Chain 306 has narrow spectrum activity against E. coli at 1 μg/ml and for the rest of the bacterial strains at >32 μg/ml (FIG. 10c).

[2] = system: Enterobacter cloacae clinical strains; assay type: cell-based; conditions: clinical strains
Method: as §1, §2

[3] = system: Proteus mirabilis clinical strains; assay type: cell-based; conditions: clinical strains
Method: as §1, §2

[4] = system: Serratia marcescens clinical strains; assay type: cell-based; conditions: clinical strains
Method: as §1, §2

[5] = system: Staphylococcus aureus clinical strains; assay type: cell-based; conditions: clinical strains
Method: as §1, §2

[6] = system: Streptococcus pneumoniae clinical strains; assay type: cell-based; conditions: clinical strains
Method: as §1, §2

[7] = system: Candida albicans clinical strains; assay: MIC, clinical yeast strains; assay type: cell-based; design: unit: μg/ml
Method: as §1, §2

[8] = system: C. glabrata clinical strains; assay: MIC, clinical yeast strains; assay type: cell-based, Candida glabrata; design: unit: µg/ml
Method: as §1, §2

[9] = system: C. parapsilosis clinical strains; assay: MIC, clinical yeast strains; assay type: cell-based, Candida parapsilosis; design: unit: µg/ml
Method: as §1, §2

[10] = system: C. quillermondiae clinical strains; assay: MIC, clinical yeast strains; assay type: cell-based, Candida quillermondiae; design: unit: μg/ml; conditions: C. quillermondiae clinical yeast strain 1
Method: as §1, §2

[11] = system: Acinetobacter johnsonii clinical strains; assay type: cell-based; conditions: clinical strain 1; D-form peptides; MH broth-cation adjusted, 0.02% BSA, 0.2% acetic acid
Method: as §1, §2

[12] = system: Escherichia coli clinical strains; assay type: cell-based; conditions: clinical strains
Method: as §1, §2

[13] = system: Klebsiella pneumoniae clinical strains; assay type: cell-based; conditions: clinical strains
Method: as §1, §2

[14] = system: Pseudomonas aeruginosa clinical strains; assay type: cell-based; conditions: clinical strains
Method: as §1, §2

`CC[C@@H](C)[C@@H](NC(=O)[C@@H](CCSC)NC(=O)[C@@H](C)NC(=O)[C@@H](CCCNC(=N)N)NC(=O)[C@@H](Cc1c[nH]c2ccccc12)NC(=O)[C@@H](CCCCN)NC(=O)[C@H](N)CCCNC(=N)N)C(=O)N[C@H](CCCNC(=N)N)C(=O)N[C@H](CC(C)C)C(=O)N[C@H](Cc1c[nH]cn1)C(=O)N[C@H](C)C(=O)N[C@H](CCCCN)C(=O)N[C@H](CCCNC(=N)N)C(=O)N[C@H](CC(C)C)C(=O)N[C@H](CCCNC(=N)N)C(=O)N[C@H](CCCCN)C(=O)O` [Chain104D] (H-[dR][dK][dW][dR][dA][dM][dI][dR][dL][dH][dA][dK][dR][dL][dR][dK]-OH) was tested, and the “MIC, Acinetobacter baumannii strain 1” value [1] was 16 µg/mL (≈ 7.55 µM), the “MIC, Acinetobacter baumannii strain 2” value [1] was 8 µg/mL (≈ 3.77 µM) and the “MIC, Acinetobacter baumannii strain 3” value [1] was 8 µg/mL (≈ 3.77 µM). For the same compound, the “MIC, Acinetobacter baumannii strain 4” value [1] was 4 µg/mL (≈ 1.89 µM), the “MIC, Acinetobacter baumannii strain 5” value [1] was 8 µg/mL (≈ 3.77 µM) and the “MIC, Enterobacter cloacae strain 1” value [2] was 4 µg/mL (≈ 1.89 µM). For the same compound, the “MIC, Enterobacter cloacae strain 2” value [2] was 4 µg/mL (≈ 1.89 µM), the “MIC, Enterobacter cloacae strain 3” value [2] was 8 µg/mL (≈ 3.77 µM) and the “MIC, Enterobacter cloacae strain 4” value [2] was 4 µg/mL (≈ 1.89 µM). For the same compound, the “MIC, Enterobacter cloacae strain 5” value [2] was 2 µg/mL (≈ 0.944 µM), the “MIC, Proteus mirabilis strain 1” value [3] was over 128 µg/mL and the “MIC, Proteus mirabilis strain 2” value [3] was 32 µg/mL (≈ 15.1 µM). For the same compound, the “MIC, Proteus mirabilis strain 3” value [3] was 128 µg/mL (≈ 60.4 µM), the “MIC, Proteus mirabilis strain 4” value [3] was over 128 µg/mL and the “MIC, Proteus mirabilis strain 5” value [3] was over 128 µg/mL. For the same compound, the “MIC, Serratia marcescens strain 1” value [4] was over 128 µg/mL, the “MIC, Serratia marcescens strain 2” value [4] was over 128 µg/mL and the “MIC, Serratia marcescens strain 3” value [4] was over 128 µg/mL. The “MIC, Serratia marcescens strain 4” value [4] was over 128 µg/mL, the “MIC, Serratia marcescens strain 5” value [4] was 128 µg/mL (≈ 60.4 µM) and the “MIC, Staphylococcus aureus strain 1” value [5] was 4 µg/mL (≈ 1.89 µM). The “MIC, Staphylococcus aureus strain 2” value [5] was 2 µg/mL (≈ 0.944 µM), the “MIC, Staphylococcus aureus strain 3” value [5] was 4 µg/mL (≈ 1.89 µM) and the “MIC, Staphylococcus aureus strain 4” value [5] was 2 µg/mL (≈ 0.944 µM). For the same compound, the “MIC, Staphylococcus aureus strain 5” value [5] was 4 µg/mL (≈ 1.89 µM), the “MIC, Streptococcus pneumoniae strain 1” value [6] was 4 µg/mL (≈ 1.89 µM) and the “MIC, Streptococcus pneumoniae strain 2” value [6] was 2 µg/mL (≈ 0.944 µM). The “MIC, Streptococcus pneumoniae strain 3” value [6] was 1 µg/mL (≈ 0.472 µM), the “MIC, Streptococcus pneumoniae strain 4” value [6] was 4 µg/mL (≈ 1.89 µM) and the “MIC, Streptococcus pneumoniae strain 5” value [6] was 1 µg/mL (≈ 0.472 µM). For the same compound, the Minimum inhibitory concentration ([7]; Candida albicans clinical yeast strain 1) was 8, the Minimum inhibitory concentration ([7]; Candida albicans clinical yeast strain 2) was 8 and the Minimum inhibitory concentration ([7]; Candida albicans clinical yeast strain 3) was 8. It also gave a Minimum inhibitory concentration ([7]; Candida albicans clinical yeast strain 4) of 8, a Minimum inhibitory concentration ([7]; Candida albicans clinical yeast strain 5) of 8 and a Minimum inhibitory concentration ([8]; C. glabrata clinical yeast strain 1) of 8. It also gave a Minimum inhibitory concentration ([8]; C. glabrata clinical yeast strain 2) of 8, a Minimum inhibitory concentration ([8]; C. glabrata clinical yeast strain 3) of 8 and a Minimum inhibitory concentration ([8]; C. glabrata clinical yeast strain 4) of 16. It also gave a Minimum inhibitory concentration ([9]; C. parapsilosis clinical yeast strain 1) of 4, a Minimum inhibitory concentration ([9]; C. parapsilosis clinical yeast strain 2) of 4 and a Minimum inhibitory concentration ([9]; C. parapsilosis clinical yeast strain 3) of 4. For the same compound, the Minimum inhibitory concentration ([9]; C. parapsilosis clinical yeast strain 4) was 2, the Minimum inhibitory concentration [10] was 4 and the “MIC, Acinetobacter johnsonii strain 1” value [11] was 8 µg/mL (≈ 3.77 µM). The “MIC, Escherichia coli strain 1” value [12] was 4 µg/mL (≈ 1.89 µM), the “MIC, Escherichia coli strain 2” value [12] was 4 µg/mL (≈ 1.89 µM) and the “MIC, Escherichia coli strain 3” value [12] was 4 µg/mL (≈ 1.89 µM). The “MIC, Escherichia coli strain 4” value [12] was 4 µg/mL (≈ 1.89 µM), the “MIC, Escherichia coli strain 5” value [12] was 4 µg/mL (≈ 1.89 µM) and the “MIC, Klebsiella pneumoniae strain 1” value [13] was 8 µg/mL (≈ 3.77 µM). For the same compound, the “MIC, Klebsiella pneumoniae strain 2” value [13] was 4 µg/mL (≈ 1.89 µM), the “MIC, Klebsiella pneumoniae strain 3” value [13] was 8 µg/mL (≈ 3.77 µM) and the “MIC, Klebsiella pneumoniae strain 4” value [13] was 16 µg/mL (≈ 7.55 µM). The “MIC, Klebsiella pneumoniae strain 5” value [13] was 4 µg/mL (≈ 1.89 µM), the “MIC, Pseudomonas aeruginosa strain 1” value [14] was 4 µg/mL (≈ 1.89 µM) and the “MIC, Pseudomonas aeruginosa strain 2” value [14] was 2 µg/mL (≈ 0.944 µM). For the same compound, the “MIC, Pseudomonas aeruginosa strain 3” value [14] was 4 µg/mL (≈ 1.89 µM), the “MIC, Pseudomonas aeruginosa strain 4” value [14] was 2 µg/mL (≈ 0.944 µM) and the “MIC, Pseudomonas aeruginosa strain 5” value [14] was 1 µg/mL (≈ 0.472 µM).
